Experimental data: patent publication US11319299B2, “Substituted carboxamides as inhibitors of WDR5 protein-protein binding” (PROPELLON THERAPEUTICS INC., priority 2016, dated 2022)

target: WDR5 (Homo sapiens (Human), UniProt P61964); assay: Surface Plasmon Resonance (SPR) assay, KD and residence time; assay type: binding; conditions: surface plasmon resonance (SPR) assay; read-out: WDR5 binding affinity (KD)

Kd [nM]	Compound
5.11	CN(C)[C@@H]1CCN(c2cc(F)c(-c3ccc(OCC4CC4)nc3)cc2NC(=O)c2c[nH]c(=O)cc2C(F)(F)F)C1 [Example 238, N-[5-[6-(cyclopropylmethoxy)pyridin-3-yl]-4-fluoro-2-[(3R)-3-(dimethylamino)pyrrolidin-1-yl]phenyl]-6-oxo-4-(trifluoromethyl)-1H-pyridine-3-carboxamide]
0.391	C[C@@H]1CN(c2cc(F)c(-c3ccnc(N4CCOCC4)c3)cc2NC(=O)c2c[nH]c(=O)cc2C(F)(F)F)C[C@H](C)N1C [Example 83, N-[4-fluoro-5-(2-morpholin-4-ylpyridin-4-yl)-2-[(3R,5S)-3,4,5-trimethylpiperazin-1-yl]phenyl]-6-oxo-4-(trifluoromethyl)-1H-pyridine-3-carboxamide]
9.14	C[C@@H]1CN(c2cc(F)c(-c3ccc(N4CCCC4)cc3)cc2NC(=O)c2cn(C)c(=O)cc2C(F)(F)F)C[C@H](C)N1C [Example 227, N-[4-fluoro-5-(4-pyrrolidin-1-ylphenyl)-2-[(3R,5S)-3,4,5-trimethylpiperazin-1-yl]phenyl]-1-methyl-6-oxo-4-(trifluoromethyl)pyridine-3-carboxamide]
0.673	Cc1cnc(N2CCC=C(c3cc(NC(=O)c4c[nH]c(=O)cc4C(F)(F)F)c(N4C[C@@H](C)N(C)[C@@H](C)C4)cc3F)C2)nc1 [Example 376, N-[4-fluoro-5-[1-(5-methylpyrimidin-2-yl)-3,6-dihydro-2H-pyridin-5-yl]-2-[(3R,5S)-3,4,5-trimethylpiperazin-1-yl]phenyl]-6-oxo-4-(trifluoromethyl)-1H-pyridine-3-carboxamide]
0.775	C[C@@H]1CN(c2cc(F)c(C3=CCN(c4ncc(CO)cn4)CC3)cc2NC(=O)c2c[nH]c(=O)cc2C(F)(F)F)C[C@H](C)N1C [Example 394, N-[4-fluoro-5-[1-[5-(hydroxymethyl)pyrimidin-2-yl]-3,6-dihydro-2H-pyridin-4-yl]-2-[(3R,5S)-3,4,5-trimethylpiperazin-1-yl]phenyl]-6-oxo-4-(trifluoromethyl)-1H-pyridine-3-carboxamide]
1.98	C[C@@H]1CN(c2cc(F)c(C3=CCN(C(=O)CC(C)(C)C)CC3)cc2NC(=O)c2c[nH]c(=O)cc2C(F)(F)F)C[C@H](C)N1C [Example 255, N-[5-[1-(3,3-dimethylbutanoyl)-3,6-dihydro-2H-pyridin-4-yl]-4-fluoro-2-[(3R,5S)-3,4,5-trimethylpiperazin-1-yl]phenyl]-6-oxo-4-(trifluoromethyl)-1H-pyridine-3-carboxamide]

Second part, the compound before the results:

Compound	Kd [nM]
CCn1cc(C(=O)Nc2cc(-c3cnc(N4CCOCC4)nc3)c(F)cc2N2C[C@@H](C)N(C)[C@@H](C)C2)c(C(F)(F)F)cc1=O [Example 315, 1-ethyl-N-[4-fluoro-5-(2-morpholin-4-ylpyrimidin-5-yl)-2-[(3R,5S)-3,4,5-trimethylpiperazin-1-yl]phenyl]-6-oxo-4-(trifluoromethyl)pyridine-3-carboxamide]	8.49
CC1CN(c2cc(F)c(-c3cnc(N4CCOCC4)nc3)cc2NC(=O)c2n[nH]cc2Cl)CCN1C (stereo in doubt) [Example 183, 4-chloro-N-[4-fluoro-5-(2-morpholin-4-ylpyrimidin-5-yl)-2-[(3R)-3,4-dimethylpiperazin-1-yl]phenyl]-1H-pyrazole-3-carboxamide]	113
CC1CN(c2cc(F)c(-c3cnc4c(c3)OCCO4)cc2NC(=O)c2c[nH]c(=O)cc2C(F)(F)F)CCN1C (stereo in doubt) [Example 241, N-[5-(2,3-dihydro-[1,4]dioxino[2,3-b]pyridin-7-yl)-4-fluoro-2-[(3R)-3,4-dimethylpiperazin-1-yl]phenyl]-6-oxo-4-(trifluoromethyl)-1H-pyridine-3-carboxamide]	2.82
COc1cccc(C(=O)Nc2cc(-c3cnc(N4CCOCC4)nc3)c(F)cc2N2C[C@@H](C)N(C)[C@@H](C)C2)c1 [Example 89, N-[4-fluoro-5-(2-morpholin-4-ylpyrimidin-5-yl)-2-[(3R,5S)-3,4,5-trimethylpiperazin-1-yl]phenyl]-3-methoxybenzamide]	33.8
C[C@@H]1CN(c2cc(F)c(-c3cnc(N4CCOCC4)nc3)cc2NC(=O)c2ccc(F)cc2Cl)C[C@H](C)N1C [Example 87, 2-chloro-4-fluoro-N-[4-fluoro-5-(2-morpholin-4-ylpyrimidin-5-yl)-2-[(3R,5S)-3,4,5-trimethylpiperazin-1-yl]phenyl]benzamide]	8.21
C[C@@H]1CN(c2cc(F)c(-c3cnc(N4CCOCC4)nc3)cc2NC(=O)c2cc(Cl)cc(Cl)c2)C[C@H](C)N1C [Example 76, 3,5-dichloro-N-[4-fluoro-5-(2-morpholin-4-ylpyrimidin-5-yl)-2-[(3R,5S)-3,4,5-trimethylpiperazin-1-yl]phenyl]benzamide]	2.07
C[C@@H]1CN(c2cc(F)c(-c3ccc(N4CCOCC4)cc3)cc2NC(=O)c2cc(Cl)cc(Cl)c2)C[C@H](C)N1C [Example 191, 3,5-dichloro-N-[4-fluoro-5-(4-morpholin-4-ylphenyl)-2-[(3R,5S)-3,4,5-trimethylpiperazin-1-yl]phenyl]benzamide]	21.5

same assay, conditions: surface plasmon resonance (SPR); read-out: WDR5 binding affinity (KD)

Kd [nM]	Compound
0.768	C[C@@H]1CN(c2cc(F)c(-c3ccc(S(C)(=O)=O)nc3)cc2NC(=O)c2c[nH]c(=O)cc2C(F)(F)F)C[C@H](C)N1C [Example 581, N-[4-fluoro-5-(6-methylsulfonylpyridin-3-yl)-2-[(3R,5S)-3,4,5-trimethylpiperazin-1-yl]phenyl]-6-oxo-4-(trifluoromethyl)-1H-pyridine-3-carboxamide]
1.31	C[C@@H]1CN(c2nccc(-c3cc(NC(=O)c4c[nH]c(=O)cc4C(F)(F)F)c(N4C[C@@H](C)N(C)[C@@H](C)C4)cc3F)n2)CCO1 (racemic) [Example 691, N-[4-fluoro-5-[2-[(2R)-2-methylmorpholin-4-yl]pyrimidin-4-yl]-2-[(3R,5S)-3,4,5-trimethylpiperazin-1-yl]phenyl]-6-oxo-4-(trifluoromethyl)-H-pyridine-3-carboxamide]
0.7	C[C@@H]1CN(c2cc(F)c(-c3cc(F)c(C(=O)N(C)C4COC4)c(F)c3)cc2NC(=O)c2c[nH]c(=O)cc2C(F)(F)F)C[C@H](C)N1C [Example 763, 6-oxo-N-(3′,5′,6-trifluoro-4′-(methyl(oxetan-3-yl)carbamoyl)-4-((3S,5R)-3,4,5-trimethylpiperazin-1-yl)-[1,1′-biphenyl]-3-yl)-4-(trifluoromethyl)-1,6-dihydropyridine-3-carboxamide]
2.59	C[C@@H]1CN(c2cc(F)c(-c3ncc(C(=O)N(C)CC4CC4)s3)cc2NC(=O)c2c[nH]c(=O)cc2C(F)(F)F)C[C@H](C)N1C [Example 497, N-(cyclopropylmethyl)-2-[2-fluoro-5-[[6-oxo-4-(trifluoromethyl)-1H-pyridine-3-carbonyl]amino]-4-[(3R,5S)-3,4,5-trimethylpiperazin-1-yl]phenyl]-N-methyl-1,3-thiazole-5-carboxamide]
1.29	C[C@@H]1CN(c2cc(F)c(-c3ccc(C(=O)N(C)CC4CC4)c(F)c3)cc2NC(=O)c2c[nH]c(=O)cc2C(F)(F)F)C[C@H](C)N1C [Example 733, N-[5-[4-[cyclopropylmethyl(methyl)carbamoyl]-3-fluorophenyl]-4-fluoro-2-[(3R,5S)-3,4,5-trimethylpiperazin-1-yl]phenyl]-6-oxo-4-(trifluoromethyl)-1H-pyridine-3-carboxamide]
0.617	C[C@@H]1CN(c2cc(F)c(-c3ccc(N4CCO[C@@H](C)C4)nc3)cc2NC(=O)c2c[nH]c(=O)cc2C(F)(F)F)C[C@H](C)N1C (racemic) [Example 434, N-[4-fluoro-5-[6-[(2R)-2-methylmorpholin-4-yl]pyridin-3-yl]-2-[(3S,5R)-3,4,5-trimethylpiperazin-1-yl]phenyl]-6-oxo-4-(trifluoromethyl)-1H-pyridine-3-carboxamide]

Second part, the compound before the results:

Compound	Kd [nM]
CC1CN(c2cc(F)c(-c3cccc(N4CCOCC4)n3)cc2NC(=O)c2c[nH]c(=O)cc2C(F)F)CCN1C (stereo in doubt) [Example 721, 4-(difluoromethyl)-N-[4-fluoro-5-(6-morpholin-4-ylpyridin-2-yl)-2-[(3R)-3,4-dimethylpiperazin-1-yl]phenyl]-6-oxo-1H-pyridine-3-carboxamide]	1.62
C[C@@H]1CN(c2ccc(-c3cc(NC(=O)c4cn(C)c(=O)cc4C(F)F)c(N4CCN(C)[C@@H](C)C4)cc3F)cn2)C[C@H](C)O1 [Example 515, 4-(difluoromethyl)-N-[4-fluoro-5-[6-[(2R,6S)-2,6-dimethylmorpholin-4-yl]pyridin-3-yl]-2-[(3S)-3,4-dimethylpiperazin-1-yl]phenyl]-1-methyl-6-oxopyridine-3-carboxamide]	4.09
C[C@@H]1CN(c2nccc(-c3cc(NC(=O)c4c[nH]c(=O)cc4C(F)F)c(N4C[C@@H](C)N(C)[C@@H](C)C4)cc3F)n2)C[C@H](C)O1 [Example 744, 4-(difluoromethyl)-N-[4-fluoro-5-[2-[(2R,6S)-2,6-dimethylmorpholin-4-yl]pyrimidin-4-yl]-2-[(3S,5R)-3,4,5-trimethylpiperazin-1-yl]phenyl]-6-oxo-1H-pyridine-3-carboxamide]	2.76
CC1CN(c2ncc(-c3cc(NC(=O)c4c[nH]c(=O)cc4C(F)F)c(N4C[C@@H](C)N(C)[C@@H](C)C4)cc3F)cn2)CCO1 (stereo in doubt) [Example 397, 4-(difluoromethyl)-N-[4-fluoro-5-[2-[(2R)-2-methylmorpholin-4-yl]pyrimidin-5-yl]-2-[(3S,5R)-3,4,5-trimethylpiperazin-1-yl]phenyl]-6-oxo-1H-pyridine-3-carboxamide]	0.68
C[C@@H]1CN(c2nccc(-c3cc(NC(=O)c4cn(C)c(=O)cc4C(F)F)c(N4C[C@@H](C)N(C)[C@@H](C)C4)cc3F)n2)C[C@H](C)O1 [Example 745, 4-(difluoromethyl)-N-[4-fluoro-5-[2-[(2R,6S)-2,6-dimethylmorpholin-4-yl]pyrimidin-4-yl]-2-[(3R,5S)-3,4,5-trimethylpiperazin-1-yl]phenyl]-1-methyl-6-oxopyridine-3-carboxamide]	5.6
